Assay results from US10344065B2, “Method for treating Alzheimer's disease and method for downregulating protein aggregation in brain” (National Cheng Kung University, priority 2017, dated 2019).
Residues, ends and D or L forms follow the SMILES beside them. *: point of attachment. Cbz = O=C(OCc1ccccc1)*

How the values were obtained:
[1] = tested on: MCF7 cell lysates; test: Zfration and degradation of proteins in MCF7 cell lysates; assay type: biochemical, human
Method: (§1) Aliquots of Zfra-deficient breast MCF7 cell lysates (100 μg) were incubated with Zfra (100 μM) for various durations in the presence or absence of proteasome inhibitor MG-132 (50 μM). Zfra formed complexes with cytosolic proteins (or zfrated; see arrows), and disappeared with time even in the presence of MG-132. (B and C) Zfra-negative prostate DU145 cells were exposed to UV (160-720 mJ/cm^2), and aliquots of whole cell lysates (100 μg) were incubated with Zfra peptide (100 μM) for various durations (in PBS) at 37° C., in the presence of a cocktail of protease inhibitors (1:10 dilution). Zfrated proteins (70, 72, 200 kDa and minor band ladders) and exogenous Zfra peptide were degraded with time (>99% in 120 minutes; reducing SDS-PAGE). Synthetic Zfra was in PBS at the first lane at the left, and in Milli-Q water at the last lane at the right. Zfra-free control lysates had only less than 10% degradation of total proteins after incubation for 120 minutes, in the presence of protease inhibitors (data not shown). In the diagram of FIG. 6C, at each time points, the left bar is cell lysates, and the right bar is Zfra peptide. (D) L929 cell lysates (100 μg) were incubated with Zfra peptide (100 μM) for 30 minutes at 37° C. (in PBS). A 30-kDa protein was zfrated in 30 minutes, and 22- and 80-kDa protein was zfrated rapidly and then degraded in 30 minutes (reducing SDS-PAGE). *A nonspecific immunoreactive or a zfrated protein in L929 cells. (E) Zfra peptide (100 μM) bound recombinant His-Tau (2 μg protein) in PBS for 24 hours at room temperature, and the resulting complex resisted dissociation by reducing SDS-PAGE. Abbreviation: Zfra, zinc finger-like protein that regulates apoptosis.
To continue to investigate how Zfra reduces protein aggregation in vivo, we examined whether Zfra interacts with cytosolic proteins and accelerates protein degradation. Zfra peptide at high concentrations may undergo self-polymerization especially in PBS. […] Zfra-deficient human breast MCF7 cells were used. […]

[2] = Self-polymerization of Zfra peptide in PBS (reducing SDS-PAGE); assay type: physicochemical; conditions: >1 mM in PBS; molecular sizes from 3.5 kDa up to 78 and 80 kDa
[3] = tested on: pyramidal neurons in the hippocampi; test: Melanoma B16F10-induced neurodegeneration in nude mice; assay type: in vivo, mouse; conditions: nude mice, B16F10; data not shown
Method: FIG. 4 includes photos showing that Zfra suppresses melanoma B16F10-mediated neurodegeneration in the hippocampus. Nude mice were preinjected with 100 μL, of sterile Milli-Q water or Zfra4-10 (1 mM in sterile water) in 3 consecutive weeks. After treatment for a week, these mice were inoculated with melanoma B16F10 cells on both flanks (2×10^5 cells in 100-μL, PBS). Mice were sacrificed when the tumor sizes grew up to 2000-3000 mm^3 in about a month. (A) Zfra blocked neurodegeneration in the hippocampus (top panel) and prevented the formation of TPC6AΔ plaques in the cortex (bottom panel), which negatively correlates with pS14-WWOX expression. Note the presence of condensed apoptotic nuclei in the hippocampal neurons in the control mice, (B) Metastasis of B16F10 cells to the lung was blocked in Zfra-treated mice. Compared to controls, Zfra suppressed p-S14WWOX expression in the lung by ˜72% suppression (three sections). […] (C and D) The non-spatial learning and memory were determined by novel object recognition task for both 3×Tg and Wwox+/− mice. […]
Six- to eight-week-old male nude (BALB/cAnN.Cg-Foxn1^nu/CrlNarl) mice (National Laboratory Animal Center, Taiwan) were used. […] Tumor volumes were measured daily and calculated using the equation, D×(d)^2/2, where D and d are the major and minor diameters, respectively. […] Z-cell distribution in organs was determined under fluorescence microscopy.

[4] = tested on: L929 cell lysates; test: Zfration and degradation of proteins in L929 cell lysates; assay type: biochemical, murine
Method: as §1, with “A 30-kDa protein was zfrated in 30 minutes, and 22- and 80-kDa protein was zfrated rapidly and then degraded in 30 minutes (reducing SDS-PAGE). *A nonspecific immunoreactive or a zfrated protein in L929 cells. (E) Zfra peptide (100 μM) bound recombinant His-Tau (2 μg protein) in PBS for 24 hours at room temperature, and the resulting complex resisted dissociation by reducing SDS-PAGE. Abbreviation: Zfra, zinc finger-like protein that regulates apoptosis.” left out

[5] = biological target: T1, Aβ42 (Homo sapiens, UniProt P05067); test: Aβ42 aggregation in vitro (SDS-PAGE); assay type: biochemical; conditions: 100 μM each peptide, room temperature, 24 hours or less
T1 construct: purchased AnaSpec
Text: FIG. 5 includes photos and diagrams showing that Zfra suppresses polymerization or aggregation of serine-containing TPC6AΔ and other peptides in PBS. […] The mixtures were subjected to nonreducing sodium dodecyl sulfate polyacrylamide gel electrophoresis (SDS-PAGE). (A) Full-length Zfra or red-fluorescent TMR-Zfra blocked aggregation of Aβ42 (lanes 3, 5, and 7). […] The membrane was stained with antibody against Aβ. (B) Zfra4-10 and one of the TPC6AΔ peptides were resuspended in Milli-Q water or PBS and incubated for 24 hours at room temperature. Zfra4-10 suppressed the polymerization of serine-containing peptides. Reduction in intensity=[1−(Z.P)/(Z+P)]×100%, where Z=Zfra4-10, P=an indicated peptide, and Z.P=peptide mixture. […] Zfra4-10 suppressed polymerization of these peptides in PBS.
Zfra and serine-containing peptides were synthesized by Genemed Synthesis (San Antonio, Tex., USA), (1) Zfra1-31, […] (SEQ ID NO: 2); (2) Zfra4-10, RRSSSCK (SEQ ID NO: 1); (3) WWOX7-21, AGLDDTDSEDELPPG (SEQ ID NO: 3); (4) pS14-WWOX7-21, AGLDDTDpSEDELPPG (SEQ ID NO: 4); (5). […]

T1 sequence (P05067 672-713): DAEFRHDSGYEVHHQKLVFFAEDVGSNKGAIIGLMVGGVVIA

Compound	effect of proteasome inhibitor on degradation of zfrated proteins ([1]; MCF7 lysates with Zfra, MG-132 50 μM)	self-polymerization [2]	results in similar experiments (melanoma-induced neurodegeneration, metastasis, pS14-WWOX) [3]	zfration and degradation of 80 and 22 kDa proteins ([4]; 37° C., PBS)	zfration of 30-kDa protein ([4]; 30 minutes)	aggregation of Aβ42 [5]	degradation of zfrated proteins ([1]; MCF7 lysates, with or without MG-132)	binding of cellular proteins (zfration) ([1]; MCF7 lysates, complexes resisted SDS and β-mercaptoethanol)
CC(C)C[C@@H](C=O)NC(=O)[C@H](CC(C)C)NC(=O)[C@H](CC(C)C)NC(=O)OCc1ccccc1 [MG-132, reference compound] (Cbz-Leu-Leu-Leu-aldehyde)	did not block but enhanced	–	–	–	–	–	–	–
MSSRRSSSCKYCEQDFRAHTQKNAAFPFLAN (MSSRRSSSCKYCEQDFRAHTQKNAATPFLAN; Synthesized pepetide) [Zfra1-31, full-length 31-amino-acid zinc finger-like protein that regulates apoptosis]	–	underwent self-polymerization	Comparable results	rapidly zfrated and then degraded in 30 minutes	became zfrated	blocked	degraded with time of incubation	Zfra-bound cellular proteins
